molecular target: T1, GSK-3β (AA 1-420) (Homo sapiens, UniProt P49841); experiment: Ki determination for the inhibition of GSK-3 (standard coupled enzyme system); assay type: biochemical; settings: 20 μM ATP, 300 μM peptide, 30° C.
T1 construct: GSK-3β (AA 1-420)
Protocol: Reactions were carried out in a solution containing 100 mM HEPES (pH 7.5), 10 mM MgCl2, 25 mM NaCl, 300 μM NADH, 1 mM DTT and 1.5% DMSO. Final substrate concentrations in the assay were 20 μM ATP (Sigma Chemicals, St Louis, Mo.) and 300 μM peptide (HSSPHQS(PO3H2)EDEEE, American Peptide, Sunnyvale, Calif.). Reactions were carried out at 30° C. and 20 nM GSK-30. Final concentrations of the components of the coupled enzyme system were 2.5 mM phosphoenolpyruvate, 300 μM NADH, 30 μg/ml pyruvate kinase and 10 μg/ml lactate dehydrogenase.
An assay stock buffer solution was prepared containing all of the reagents listed above with the exception of ATP and the test Compound of interest. The assay stock buffer solution (175 μl) was incubated in a 96 well plate with 5 μl of the test compound of interest at final concentrations spanning 0.002 μM to 30 μM at 30° C. for 10 minutes. […] The reaction was initiated by the addition of 20 μl of ATP (final concentration 20 μM). Rates of reaction were obtained using a Molecular Devices Spectramax plate reader (Sunnyvale, Calif.) over 10 minutes at 30° C. The Ki values were determined from the rate data as a function of inhibitor concentration.

T1 sequence (P49841 whole entry, the tested form may be a part): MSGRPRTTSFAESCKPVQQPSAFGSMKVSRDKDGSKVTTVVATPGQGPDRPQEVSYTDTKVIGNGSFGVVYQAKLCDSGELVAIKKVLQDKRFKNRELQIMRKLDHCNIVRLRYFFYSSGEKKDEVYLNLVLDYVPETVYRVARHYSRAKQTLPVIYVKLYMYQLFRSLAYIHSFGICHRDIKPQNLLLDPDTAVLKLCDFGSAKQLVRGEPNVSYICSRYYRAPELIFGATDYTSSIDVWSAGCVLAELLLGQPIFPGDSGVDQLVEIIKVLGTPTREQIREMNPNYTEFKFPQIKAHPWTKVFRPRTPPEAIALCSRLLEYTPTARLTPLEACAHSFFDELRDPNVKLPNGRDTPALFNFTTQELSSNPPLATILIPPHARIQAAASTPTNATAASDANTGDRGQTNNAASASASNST

Ki [µM]	SMILES
< 1	COc1ccc2c(c1)nc(-c1nonc1N)n2CC#N [Compound I-47, 1-Cyanomethyl-2-[(4-amino)-1,2,5-oxadiazol-3-yl]-5/6-methoxy benzimidazole]
< 1	CNc1nccnc1-c1nc2ccccc2n1CC#N [Compound I-90, 3-(1-Cyanomethylbenzimidazol-2-yl)-pyrazin-2-yl methylamine]
< 1	CC(C)Cn1c(-c2nc(Cl)cnc2N)nc2ccccc21 [Compound I-96]
< 1	CC(C)n1c(-c2nonc2N)nc2ccccc21 [Compound I-11, 4-(1-Isopropyl-1H-benzoimidazol-2-yl)-furazan-3-ylamine]
< 1	CC(C)Cn1c(-c2nonc2N)nc2cc(O)ccc21 [Compound I-129]
< 1	CCCn1c(-c2nonc2N)nc2ccccc21 [Compound I-7, 4-(1-Propyl-1H-benzoimidazol-2-yl)-furazan-3-ylamine]
< 1	CCn1c(-c2nonc2N)nc2ccccc21 [Compound I-55, 4-(1-Ethyl-1H-benzoimidazol-2-yl)-furazan-3-ylamine]
< 1	CC(C(N)=O)n1c(-c2nonc2N)nc2ccccc21 (stereo not shown) [Compound I-109]
< 1	Nc1nonc1-c1nc2ccccc2n1-c1ccccc1 [Compound I-50, 1-Phenyl-2-[(4-amino)-1,2,5-oxadiazol-3-yl]benzimidazole]
< 1	CC(C#N)n1c(-c2nonc2N)nc2ccccc21 (racemic) [Compound I-51]
< 1	N#CCn1c(-c2nonc2N)nc2c([N+](=O)[O-])cccc21 [Compound I-56, 1-Cyanomethyl-2-[(4-amino)-1,2,5-oxadiazol-3-yl]-4-nitro benzimidazole]
< 1	Nc1nonc1-c1nc2ccccc2n1CC(F)(F)F [Compound I-37, 1-(2,2,2-Trifluoro)ethyl-2-[(4-amino)-1,2,5-oxadiazol-3-yl]benzimidazole]
< 1	Nc1cccnc1-c1nc2ccccc2[nH]1 [Compound I-87]
< 1	CC(C)CCn1c(-c2nonc2N)nc2ccccc21 [Compound I-54, 1-(3-Methyl)butyl-2-[(4-amino)-1,2,5-oxadiazol-3-yl]benzimidazole]
< 1	Nc1nonc1-c1nc2ccccc2n1CC1CC1 [Compound I-32, 1-Cyclopropylmethyl-2-[(4-amino)-1,2,5-oxadiazol-3-yl]benzimidazole]
< 1	Nc1nonc1-c1nc2ccccc2n1CC(=O)Nc1ccc(F)c(F)c1 [Compound I-19, 2-[2-(4-Amino-furazan-3-yl)-benzoimidazol-1-yl]-N-(3,4-difluoro-phenyl)-acetamide]
< 1	C=CCn1c(-c2nonc2N)nc2ccccc21 [Compound I-9, 4-(1-Allyl-1H-benzoimidazol-2-yl)-furazan-3-ylamine]
< 1	N#CCn1c(-c2nonc2N)nc2ccccc21 [Compound I-13, [2-(4-Amino-furazan-3-yl)-benzoimidazol-1-yl]-acetonitrile]
< 1	N#CCOc1cccc2c1nc(-c1nonc1N)n2CC#N [Compound I-58, 1-Cyanomethyl-2-[(4-amino)-1,2,5-oxadiazol-3-yl]-4/7-cyanomethoxy benzimidazole]
